According to publication PMC5218480 (PLoS ONE, 2017):

Test system: MV-4-11 cells
Test: Gene expression microarray analysis (Affymetrix PrimeView) and GSEA
Assay type: cell-based, human
Set-up: RFU PODN (11730768_x_at) / Fold change /veh PODN (11730768_x_at) / RFU LINC00158 (11744669_a_at) / Fold change /veh LINC00158 (11744669_a_at) / RFU DUSP10 (11751237_a_at) / Fold change /veh DUSP10 (11751237_a_at) / RFU ID3 (11757404_x_at) / Fold change /veh ID3 (11757404_x_at) / RFU PLEKHG5 (11737974_s_at) / Fold change /veh PLEKHG5 (11737974_s_at) / RFU LRRC4B (11730491_at) / Fold change /veh LRRC4B (11730491_at) / RFU GIMAP4 (11747438_a_at) / Fold change /veh GIMAP4 (11747438_a_at) / RFU KRT8 (11758183_x_at) / Fold change /veh KRT8 (11758183_x_at) / RFU CNN1 (11734310_a_at) / Fold change /veh CNN1 (11734310_a_at) / RFU VPS37D (11726825_at) / Fold change /veh VPS37D (11726825_at) / RFU C10orf10 (11716522_x_at) / Fold change /veh C10orf10 (11716522_x_at) / RFU KIR2DL2 /// KIR2DL4 /// KIR2DL5A /// KIR2DL5B /// KIR2DS1 /// KIR2DS2 /// KIR2DS3 /// KIR2DS4 /// KIR3DL3 /// KIR3DL3 /// KIR3DS1 (11738374_at) / Fold change /veh KIR2DL2 /// KIR2DL4 /// KIR2DL5A /// KIR2DL5B /// KIR2DS1 /// KIR2DS2 /// KIR2DS3 /// KIR2DS4 /// KIR3DL3 /// KIR3DL3 /// KIR3DS1 (11738374_at) / RFU C1QL1 (11718748_at) / Fold change /veh C1QL1 (11718748_at) / RFU TMPRSS4 (11747572_a_at) / Fold change /veh TMPRSS4 (11747572_a_at) / RFU HAMP (11756126_x_at) / Fold change /veh HAMP (11756126_x_at) / RFU RNFT2 (11725882_a_at) / Fold change /veh RNFT2 (11725882_a_at) / RFU NR4A2 (11747474_a_at) / Fold change /veh NR4A2 (11747474_a_at) / RFU ABCC12 (11746883_a_at) / Fold change /veh ABCC12 (11746883_a_at) / RFU TMEM136 (11760407_x_at) / Fold change /veh TMEM136 (11760407_x_at) / RFU CLDN22 /// WWC2 (11732394_at) / Fold change /veh CLDN22 /// WWC2 (11732394_at) / RFU HLA-DPB1 (11760878_x_at) / Fold change /veh HLA-DPB1 (11760878_x_at) / RFU SPINT1 (11716480_a_at) / Fold change /veh SPINT1 (11716480_a_at) / RFU GAP43 (11754022_s_at) / Fold change /veh GAP43 (11754022_s_at) / RFU A4GNT (11735810_at) / Fold change /veh A4GNT (11735810_at) / RFU PRB3 (11715151_x_at) / Fold change /veh PRB3 (11715151_x_at) / RFU TUBB4B (11761932_at) / Fold change /veh TUBB4B (11761932_at) / RFU CAPN14 (11732068_a_at) / Fold change /veh CAPN14 (11732068_a_at) / RFU TMCC2 (11721928_a_at) / Fold change /veh TMCC2 (11721928_a_at) / RFU IRGQ (11745062_a_at) / Fold change /veh IRGQ (11745062_a_at) / RFU FAM174B (11720279_a_at) / Fold change /veh FAM174B (11720279_a_at) / RFU TMPRSS4 (11748680_a_at) / Fold change /veh TMPRSS4 (11748680_a_at) / RFU FAM212B (11763350_a_at) / Fold change /veh FAM212B (11763350_a_at) / RFU PLEKHG5 (11743358_a_at) / Fold change /veh PLEKHG5 (11743358_a_at) / RFU ZSCAN30 (11745921_a_at) / Fold change /veh ZSCAN30 (11745921_a_at) / RFU CMKLR1 (11741424_a_at) / Fold change /veh CMKLR1 (11741424_a_at) / RFU LOC101060620 /// MAPK8IP1 (11723275_at) / Fold change /veh LOC101060620 /// MAPK8IP1 (11723275_at) / RFU SPTSSB (11747773_x_at) / Fold change /veh SPTSSB (11747773_x_at) / RFU PRSS12 (11739890_at) / Fold change /veh PRSS12 (11739890_at) / RFU BIN1 (11741810_x_at) / Fold change /veh BIN1 (11741810_x_at) / RFU WNT11 (11732464_a_at) / Fold change /veh WNT11 (11732464_a_at) / RFU C10orf10 (11716521_a_at) / Fold change /veh C10orf10 (11716521_a_at) / RFU C5orf56 (11738089_at) / Fold change /veh C5orf56 (11738089_at) / RFU CYB561 (11721691_x_at) / Fold change /veh CYB561 (11721691_x_at) / RFU ANKRD19P (11752326_a_at) / Fold change /veh ANKRD19P (11752326_a_at) / RFU OR2T12 /// OR2T33 /// OR2T8 (11738714_s_at) / Fold change /veh OR2T12 /// OR2T33 /// OR2T8 (11738714_s_at) / RFU VCAN (11748164_a_at) / Fold change /veh VCAN (11748164_a_at) / RFU JSRP1 (11732532_at) / Fold change /veh JSRP1 (11732532_at) / RFU KRTAP10-11 (11738290_x_at) / Fold change /veh KRTAP10-11 (11738290_x_at) / RFU MYO3A (11730013_a_at) / Fold change /veh MYO3A (11730013_a_at) / RFU EBF3 (11725865_a_at) / Fold change /veh EBF3 (11725865_a_at) / RFU CAMK2N1 (11719241_x_at) / Fold change /veh CAMK2N1 (11719241_x_at) / RFU C5orf56 (11738088_a_at) / Fold change /veh C5orf56 (11738088_a_at) / RFU OLFML3 (11715873_a_at) / Fold change /veh OLFML3 (11715873_a_at) / RFU LOC100653217 /// NTM (11731650_a_at) / Fold change /veh LOC100653217 /// NTM (11731650_a_at) / RFU MAPK11 (11762145_a_at) / Fold change /veh MAPK11 (11762145_a_at) / RFU FIZ1 (11724087_x_at) / Fold change /veh FIZ1 (11724087_x_at) / RFU OASL (11726364_x_at) / Fold change /veh OASL (11726364_x_at) / RFU SOX15 (11748057_x_at) / Fold change /veh SOX15 (11748057_x_at) / RFU CD79A (11719716_a_at) / Fold change /veh CD79A (11719716_a_at) / RFU HIST1H1D (11736915_at) / Fold change /veh HIST1H1D (11736915_at) / RFU CASKIN2 (11723855_a_at) / Fold change /veh CASKIN2 (11723855_a_at) / RFU LOC730098 (11760151_x_at) / Fold change /veh LOC730098 (11760151_x_at) / RFU OR4N2 (11742367_at) / Fold change /veh OR4N2 (11742367_at) / RFU PRRT2 (11749266_a_at) / Fold change /veh PRRT2 (11749266_a_at) / RFU SNX32 (11753110_a_at) / Fold change /veh SNX32 (11753110_a_at) / RFU CDHR5 (11726645_a_at) / Fold change /veh CDHR5 (11726645_a_at) / RFU RCAN1 (11760418_a_at) / Fold change /veh RCAN1 (11760418_a_at) / RFU FAM167A (11723789_a_at) / Fold change /veh FAM167A (11723789_a_at) / RFU FAM26E (11764081_at) / Fold change /veh FAM26E (11764081_at) / RFU ISYNA1 (11749810_s_at) / Fold change /veh ISYNA1 (11749810_s_at) / RFU ACY1 (11761880_at) / Fold change /veh ACY1 (11761880_at) / RFU 11764098_at / Fold change /veh 11764098_at / RFU SAMD14 (11745864_x_at) / Fold change /veh SAMD14 (11745864_x_at) / RFU NPB (11741838_a_at) / Fold change /veh NPB (11741838_a_at) / RFU TMPRSS6 (11731388_a_at) / Fold change /veh TMPRSS6 (11731388_a_at) / RFU KRTAP10-2 (11738614_at) / Fold change /veh KRTAP10-2 (11738614_at) / RFU ARHGAP8 /// PRR5-ARHGAP8 (11727945_x_at) / Fold change /veh ARHGAP8 /// PRR5-ARHGAP8 (11727945_x_at) / RFU KRTAP5-7 /// NADSYN1 (11734609_at) / Fold change /veh KRTAP5-7 /// NADSYN1 (11734609_at) / RFU RASL12 (11751679_a_at) / Fold change /veh RASL12 (11751679_a_at) / RFU CDKN2B (11736163_a_at) / Fold change /veh CDKN2B (11736163_a_at) / RFU PRF1 (11729649_at) / Fold change /veh PRF1 (11729649_at) / RFU, ZNF638 /// ZNF638-IT1 / Fold change vs veh, ZNF638 /// ZNF638-IT1 / RFU, PANK3 / Fold change vs veh, PANK3 / RFU, SH3YL1 / Fold change vs veh, SH3YL1 / RFU, ZEB2 / Fold change vs veh, ZEB2 / RFU, NRIP1 / Fold change vs veh, NRIP1 / RFU, PTTG1IP / Fold change vs veh, PTTG1IP / RFU, CAPN2 / Fold change vs veh, CAPN2 / RFU, MED14 / Fold change vs veh, MED14 / RFU, SNORA58 / Fold change vs veh, SNORA58 / RFU, C1orf63 / Fold change vs veh, C1orf63 / RFU, LRRFIP1 / Fold change vs veh, LRRFIP1 / RFU, NDUFAF7 / Fold change vs veh, NDUFAF7 / RFU, SLC12A2 / Fold change vs veh, SLC12A2 / RFU, IBTK / Fold change vs veh, IBTK / RFU, ESF1 / Fold change vs veh, ESF1 / Fold change vs veh, TMEM50B / RFU, TAOK1 / Fold change vs veh, TAOK1 / RFU, ACBD3 / Fold change vs veh, ACBD3 / RFU, TMA16 / Fold change vs veh, TMA16 / RFU, RWDD3 / Fold change vs veh, RWDD3 / RFU, BCAT1 / Fold change vs veh, BCAT1 / RFU, EDEM3 / Fold change vs veh, EDEM3 / RFU, TMEM33 / Fold change vs veh, TMEM33 / RFU, WDR75 / Fold change vs veh, WDR75 / RFU, AHCTF1 / Fold change vs veh, AHCTF1 / RFU, TFRC / Fold change vs veh, TFRC / RFU, ZDHHC17 / Fold change vs veh, ZDHHC17 / RFU, NOM1 / Fold change vs veh, NOM1 / RFU, ARL8B / Fold change vs veh, ARL8B / RFU, ZBTB11 / Fold change vs veh, ZBTB11 / RFU, TAMM41 / Fold change vs veh, TAMM41 / RFU, KIAA1704 /// LOC100996395 / Fold change vs veh, KIAA1704 /// LOC100996395 / RFU, ING1 / Fold change vs veh, ING1 / RFU, TRMT61B / Fold change vs veh, TRMT61B / RFU, FUBP3 / Fold change vs veh, FUBP3 / RFU, TP53 / Fold change vs veh, TP53 / RFU, TNKS2 / Fold change vs veh, TNKS2 / RFU, ZFP14 / Fold change vs veh, ZFP14 / RFU, ACTR2 / Fold change vs veh, ACTR2 / RFU, PPP3R1 / Fold change vs veh, PPP3R1 / RFU, PIK3R1 / Fold change vs veh, PIK3R1 / RFU, HNRNPA1 / Fold change vs veh, HNRNPA1 / RFU, RNF170 / Fold change vs veh, RNF170 / RFU, ZNF28 / Fold change vs veh, ZNF28 / RFU, RNGTT / Fold change vs veh, RNGTT / RFU, OGT / Fold change vs veh, OGT / RFU, BRD1 / Fold change vs veh, BRD1 / RFU, MARS / Fold change vs veh, MARS / RFU, ZNF655 / Fold change vs veh, ZNF655 / RFU, FAHD1 / Fold change vs veh, FAHD1 / RFU, BDP1 / Fold change vs veh, BDP1 / RFU, LRRCC1 / Fold change vs veh, LRRCC1 / RFU, ARID1A / Fold change vs veh, ARID1A / RFU, ZNF146 / Fold change vs veh, ZNF146 / RFU, ZNF330 / Fold change vs veh, ZNF330 / RFU, GPN3 / Fold change vs veh, GPN3 / RFU, C9orf123 / Fold change vs veh, C9orf123 / RFU, N4BP2L2 / Fold change vs veh, N4BP2L2 / RFU, ARFIP1 / Fold change vs veh, ARFIP1 / RFU, FAM179B / Fold change vs veh, FAM179B / RFU, BCL10 / Fold change vs veh, BCL10 / RFU, UHRF1BP1L / Fold change vs veh, UHRF1BP1L / RFU, BET1 / Fold change vs veh, BET1 / RFU, CNOT2 / Fold change vs veh, CNOT2 / RFU, ZNF268 / Fold change vs veh, ZNF268 / Fold change vs veh, ZNF507 / RFU, DGCR2 / Fold change vs veh, DGCR2 / RFU, WDSUB1 / Fold change vs veh, WDSUB1 / Fold change vs veh, HSP90B1 /// MIR3652 / RFU, ADSS / Fold change vs veh, ADSS / RFU, GK / Fold change vs veh, GK / RFU, ZNF148 / Fold change vs veh, ZNF148 / RFU, TAF9 / Fold change vs veh, TAF9 / RFU, SLC1A5 / Fold change vs veh, SLC1A5 / RFU, SLMO2 / Fold change vs veh, SLMO2 / RFU, ABCC4 / Fold change vs veh, ABCC4 / RFU, LOC101060439 /// RAP1B / Fold change vs veh, LOC101060439 /// RAP1B / RFU, RFX7 / Fold change vs veh, RFX7 / RFU, GTPBP10 / Fold change vs veh, GTPBP10 / RFU, CNEP1R1 / Fold change vs veh, CNEP1R1 / RFU, BIVM-ERCC5 /// ERCC5 / Fold change vs veh, BIVM-ERCC5 /// ERCC5 / RFU, ILF3 / Fold change vs veh, ILF3 / RFU 11762660_at / Fold change /veh 11762660_at / RFU VCAN (11757783_s_at) / Fold change /veh VCAN (11757783_s_at) / RFU DDX43 (11728927_at) / Fold change /veh DDX43 (11728927_at) / RFU KRT8 (11758188_x_at) / Fold change /veh KRT8 (11758188_x_at) / RFU NKD1 (11759106_at) / Fold change /veh NKD1 (11759106_at) / RFU SRD5A1 (11742802_a_at) / Fold change /veh SRD5A1 (11742802_a_at) / RFU TPSAB1 /// TPSB2 (11721975_s_at) / Fold change /veh TPSAB1 /// TPSB2 (11721975_s_at) / RFU GSTM3 (11746129_a_at) / Fold change /veh GSTM3 (11746129_a_at) / RFU IL23R (11737362_x_at) / Fold change /veh IL23R (11737362_x_at) / RFU TMEM51 (11727254_a_at) / Fold change /veh TMEM51 (11727254_a_at) / RFU PIWIL2 (11732686_x_at) / Fold change /veh PIWIL2 (11732686_x_at) / RFU ORM1 (11744905_x_at) / Fold change /veh ORM1 (11744905_x_at) / RFU CCDC152 (11743942_at) / Fold change /veh CCDC152 (11743942_at) / RFU ECM1 (11717891_a_at) / Fold change /veh ECM1 (11717891_a_at) / RFU IL23R (11748794_a_at) / Fold change /veh IL23R (11748794_a_at) / RFU TNFAIP8L3 (11732012_x_at) / Fold change /veh TNFAIP8L3 (11732012_x_at) / RFU MBOAT4 (11741988_at) / Fold change /veh MBOAT4 (11741988_at) / RFU 11764193_at / Fold change /veh 11764193_at / RFU TMEM53 (11763286_at) / Fold change /veh TMEM53 (11763286_at) / RFU MAGEB2 (11727129_at) / Fold change /veh MAGEB2 (11727129_at) / RFU TMEM200A (11744735_a_at) / Fold change /veh TMEM200A (11744735_a_at) / RFU CCDC152 (11751479_a_at) / Fold change /veh CCDC152 (11751479_a_at) / RFU FAM211A (11726209_a_at) / Fold change /veh FAM211A (11726209_a_at) / RFU RGS16 (11746705_a_at) / Fold change /veh RGS16 (11746705_a_at) / RFU VCAN (11755009_s_at) / Fold change /veh VCAN (11755009_s_at) / RFU RHOB (11743442_s_at) / Fold change /veh RHOB (11743442_s_at) / RFU RGS16 (11720943_a_at) / Fold change /veh RGS16 (11720943_a_at) / RFU RGS16 (11720944_at) / Fold change /veh RGS16 (11720944_at) / RFU, VPS4B / Fold change vs veh, VPS4B / RFU, CREB1 / Fold change vs veh, CREB1 / RFU, DNAJC13 / Fold change vs veh, DNAJC13 / RFU, GNAQ / Fold change vs veh, GNAQ / RFU, CDK5R1 / Fold change vs veh, CDK5R1 / RFU, ZRANB3 / Fold change vs veh, ZRANB3 / RFU, CUL4A / Fold change vs veh, CUL4A / RFU, CCNY / Fold change vs veh, CCNY / RFU, UFL1 / Fold change vs veh, UFL1 / RFU, COG3 / Fold change vs veh, COG3 / RFU, DIAPH2 / Fold change vs veh, DIAPH2 / RFU, SKA2 / Fold change vs veh, SKA2 / RFU, AFF3 / Fold change vs veh, AFF3 / RFU, LMF1 / Fold change vs veh, LMF1 / RFU, IPO11 / Fold change vs veh, IPO11 / RFU, DFFB / Fold change vs veh, DFFB / RFU, FOXP1 / Fold change vs veh, FOXP1 / RFU, CARD8 / Fold change vs veh, CARD8 / RFU, STRN3 / Fold change vs veh, STRN3 / RFU, ADK / Fold change vs veh, ADK / RFU, RASSF2 / Fold change vs veh, RASSF2 / RFU, WIPF1 / Fold change vs veh, WIPF1 / RFU, LARP1B / Fold change vs veh, LARP1B / RFU, RASA1 / Fold change vs veh, RASA1 / RFU, RB1 / Fold change vs veh, RB1 / RFU, PPFIA1 / Fold change vs veh, PPFIA1 / RFU, MAT2A / Fold change vs veh, MAT2A / RFU, CCT5 / Fold change vs veh, CCT5 / RFU, WDR92 / Fold change vs veh, WDR92 / RFU, CUX1 / Fold change vs veh, CUX1 / RFU, TTC7A / Fold change vs veh, TTC7A / RFU, TMEM135 / Fold change vs veh, TMEM135 / RFU, DEPTOR / Fold change vs veh, DEPTOR / RFU, CPM / Fold change vs veh, CPM / RFU, DNAJB6 / Fold change vs veh, DNAJB6 / RFU, CACNA2D3 / Fold change vs veh, CACNA2D3 / RFU, DTX4 / Fold change vs veh, DTX4 / RFU, TFCP2 / Fold change vs veh, TFCP2 / RFU, GMCL1 /// GMCL1P1 / Fold change vs veh, GMCL1 /// GMCL1P1 / RFU, AEBP2 / Fold change vs veh, AEBP2 / RFU, SNHG1 /// SNORD22 /// SNORD25 /// SNORD26 /// SNORD27 /// SNORD28 /// SNORD29 /// SNORD31 / Fold change vs veh, SNHG1 /// SNORD22 /// SNORD25 /// SNORD26 /// SNORD27 /// SNORD28 /// SNORD29 /// SNORD31 / Fold change (Aza/veh), C12orf56 (ProbeSet 11735607_a_at) / Fold change (ACY-1035/veh), C12orf56 (ProbeSet 11735607_a_at) / Fold change (Aza/veh), FGFR1OP (ProbeSet 11751329_s_at) / Fold change (ACY-1035/veh), FGFR1OP (ProbeSet 11751329_s_at) / Fold change (Aza/veh), VPS36 (ProbeSet 11739960_a_at) / Fold change (ACY-1035/veh), VPS36 (ProbeSet 11739960_a_at) / RFU SYPL1 (11715823_x_at) / Fold change /veh SYPL1 (11715823_x_at) / RFU IGFBP7 (11715501_s_at) / Fold change /veh IGFBP7 (11715501_s_at) / RFU REEP3 (11722064_at) / Fold change /veh REEP3 (11722064_at) / RFU IGLL1 (11728026_x_at) / Fold change /veh IGLL1 (11728026_x_at): dose or concentration left out as unconfirmed
Conditions: MV-4-11 cells, 48 hours

`Nc1ncn([C@@H]2O[C@H](CO)[C@@H](O)[C@H]2O)c(=O)n1` [azacitidine] was tested, and the “Fold change /veh KRTAP5-7 /// NADSYN1 (11734609_at)” value was 1.00.
